Laboratory results taken from US20030021795A1, “Use of coiled-coil structural scaffold to generate structure-specific peptides” (priority 2000, published 2003).
Read-outs that look alike come from different tables or passages of the source. Square brackets hold non-standard residues; d marks the D form. Ends that are not written are not given here. Nle = CCCC[C@H](N)C(=O)O

How the values were obtained:
anti-Strep serum = type: binding, mouse
[1] = CD spectroscopy (helical content/conformation of peptides); type: physicochemical; settings: for conformation by CD in benign buffer: benign buffer (50 mM KH2PO4, 50 mM KCl, pH 7.0), absence of TFE
Experimental: Circular dichroism (CD) spectroscopy was performed using a Jasco J-500C spectropolarimeter (Jasco, Easton, Md.) equipped with a Jasco DP-500N data processor. A 10-fold dilution of an ˜[…] stock solution of the disulfide-linked peptide was loaded into a 0.02 cm fused silica cell and ellipticity scanned from 190 to 250 nm. […] A Lauda water bath (model RMS, Brinkmann Instruments, Rexdale, Ont.) was used to control the temperature of the cell. CD spectra were the average of four scans obtained by collecting data at 0.1 nm intervals from 250 to 190 nm.

[2] = Thermal denaturation monitored by [θ]222; type: physicochemical
Text: The stability of the peptides may be determined by thermal denaturation assays or chemical denaturation assays such as the guanidine chloride denaturation assay. Such assays are known to those skilled in the art. The stability of the peptides may also be indirectly assessed by inhibition ELISA, wherein the ability of a peptide to inhibit the interaction between an antigen and an antibody serves as an indicator of how stable the peptide is in assuming the necessary conformation to compete with the antigen for the antibody.
In order to determine the stability of CVX0270, a thermal denaturation study was undertaken.

[3] = system: Streptococcus pneumoniae serotype 5; type: cell-based; settings: antiserum Day 49; immunogen dose 20 μg
[4] = system: Coiled-Coil Strep Antigen; test: Isotyping ELISA of mouse serum antibodies after i.p. immunization; type: in vivo, Balb/c mice; settings: immunogen dose 20 μg
[5] = system: Streptococcus pneumoniae serotypes (1, 3, and 5); test: Opsonization assay with antiserum; type: cell-based
[6] = system: Coiled-Coil Strep Antigen (Strep-BSA coating antigen); type: in vivo, Balb/c mice; settings: for Murine Sera (Day 49) OD 405 nm, Strep-BSA coating antigen: immunogen dose 20 μg
[7] = system: Streptococcus pneumoniae serotype 3; type: cell-based; settings: antiserum Day 49; immunogen dose 20 μg
[8] = system: Streptococcus pneumoniae serotype 1; type: cell-based; settings: antiserum Day 49; immunogen dose 20 μg

## EIEALKKKIEELSDKIDELEKEIK [Strep #1]
anti-Strep serum
  inhibition of anti-Strep serum binding (inhibition ELISA): Inhibition was also seen

## CN1eG IEELEKK ITELKQK IDALENQ IHRLEQE IKELDES (C[Nle]GIEELEKKITELKQKIDALENQIHRLEQEIKELDES) [test peptide]
[1]
  conformation by CD in benign buffer: exists in helical form even in benign buffer
[2]
  stability in thermal denaturation experiment: much more stable than the native control

## EEESDKKDEEDAEKAE [Strep #2]
anti-Strep serum
  inhibition of anti-Strep serum binding (inhibition ELISA): no inhibition

## Acetyl-CN1eGEIEALKKKIEELSDKIDELEKEIK-amide [CVX0270]
[1]; benign conditions
  ratio of the molar ellipticity at 222 and 208 ([θ]222/[θ]208): greater than 1.02
[1]; benign conditions (50 mM KH2PO4, 100 mM KCl, pH 7.0)
  conformation by CD under aqueous conditions: highly helical and found predominantly in the coiled-coil conformation
[1]; benign conditions (50 mM KH2PO4, 100 mM KCl, pH 7.0), 20° C.
  molar ellipticity at 222 nm ([θ]222): −29800
[1]; benign conditions (50 mM KH2PO4, 100 mM KCl, pH 7.0), 20° C., versus theoretical [θ]222 −33900
  helical content: 88%
[1]; in the presence of 50% TFE
  helical content: 101%
[2]
  stability in thermal denaturation experiment: very stable
[2]; at 75° C.
  % of original helicity retained: 77%
anti-Strep serum
  inhibition of anti-Strep serum binding (inhibition ELISA): significant inhibition

## CN1eG LEEAEKK ATEAKQK VDALENQ VHRLEQE LKEIDES (C[Nle]GLEEAEKKATEAKQKVDALENQVHRLEQELKEIDES) [native control]
[1]
  conformation by CD in benign buffer: needs the presence of TFE to form a helical structure

## TT: unconjugated tetanus toxoid carrier protein
[3]
  Percent Reduction of CFU Type 5: 7%
[4]; sera day 6
  Isotype IgG1: 0.06 O.D. 405 nm
  Isotype IgG2a: 0.02 O.D. 405 nm
  Isotype IgG2b: 0.01 O.D. 405 nm
  Isotype IgG3: 0.01 O.D. 405 nm
[4]; sera day 14
  Isotype IgG1: 0.05 O.D. 405 nm
  Isotype IgG2a: 0.00 O.D. 405 nm
  Isotype IgG2b: 0.00 O.D. 405 nm
  Isotype IgG3: 0.01 O.D. 405 nm
[4]; sera day 35
  Isotype IgG1: 0.08 O.D. 405 nm
  Isotype IgG2a: 0.01 O.D. 405 nm
  Isotype IgG2b: 0.01 O.D. 405 nm
  Isotype IgG3: 0.01 O.D. 405 nm
[4]; sera day 49
  Isotype IgG1: 0.44 O.D. 405 nm
  Isotype IgG2a: 0.03 O.D. 405 nm
  Isotype IgG2b: 0.02 O.D. 405 nm
  Isotype IgG3: 0.05 O.D. 405 nm
[5]
  reduction in colony forming units by antisera: Little or no reduction in colony forming units
[6]; 20 μg, 10 μg and 5 μg doses
  antibody titers to the Strep hapten: did not elicit any antibodies
[6]; serum dilution 1:2000
  Murine Sera (Day 49) OD 405 nm, Strep-BSA coating antigen: 0.11 OD 405 nm
[6]; serum dilution 1:4000
  Murine Sera (Day 49) OD 405 nm, Strep-BSA coating antigen: 0.04 OD 405 nm
[6]; serum dilution 1:8000
  Murine Sera (Day 49) OD 405 nm, Strep-BSA coating antigen: 0.01 OD 405 nm
[6]; serum dilution 1:16000
  Murine Sera (Day 49) OD 405 nm, Strep-BSA coating antigen: 0.06 OD 405 nm
[6]; serum dilution 1:32000
  Murine Sera (Day 49) OD 405 nm, Strep-BSA coating antigen: 0.00 OD 405 nm
[6]; serum dilution 1:64000
  Murine Sera (Day 49) OD 405 nm, Strep-BSA coating antigen: 0.00 OD 405 nm
[6]; serum dilution 1:128000
  Murine Sera (Day 49) OD 405 nm, Strep-BSA coating antigen: 0.00 OD 405 nm
[6]; serum dilution 1:256000
  Murine Sera (Day 49) OD 405 nm, Strep-BSA coating antigen: 0.00 OD 405 nm
[7]
  Percent Reduction of CFU Type 3: 6%
[8]
  Percent Reduction of CFU Type 1: 7%
